Reference: patent US20250368963A1, “PROXIMAL-BIASED KIDNEY ORGANOIDS” (UNIVERSITY OF SOUTHERN CALIFORNIA, priority 2024, published 2025)
“Also recorded” adds a separate entry of the source.

How the values were obtained:
[1] = system: human iPSC-derived kidney organoids; experiment: Bulk mRNA-sequencing of whole kidney organoids; assay type: cell-based
Method: mRNA-sequencing and data analyses: Whole organoid samples (3 independent biological replicates per timepoint, per condition for differentiation days 10 and 12, and 2 replicates for differentiation days 14 and 18) were prepared and purified according to the RNeasy Mini Kit (Qiagen, 74104). Purified RNA was sent to Novogene for sequencing. Reads were aligned to the hg38 Ensembl 105 annotation using STAR version 2.7.10a. A noise-reduction filter was applied to keep genes in which the maximum count in at least one sample was greater than or equal to 10. Partek Flow version 10.0 was then used to normalize these raw feature counts following the transcripts per million (TPM) normalization method. After filtering genes with TPM values greater than or equal to 25 in at least one sample, Z-score averages were calculated and heatmaps were clustered using pheatmap. Separately, gene set enrichment analyses were performed specifically on Day 12 replicate samples by first normalizing noise-reduced feature counts using the DESeq2 median ratio method, as recommended for gene set enrichment analyses. Partek Flow version 10.0 was then subsequently used for gene set enrichment analyses. Data are deposited with GEO accession number GSE264217 and will be made publicly available as of the date of publication.

[2] = system: human iPSC-derived kidney organoid nephrons; experiment: Whole-mount immunofluorescence quantification of organoid nephrons; assay type: cell-based
[3] = system: kidney organoid nephrogenic cells; experiment: Single-cell RNA-sequencing of kidney organoids; assay type: cell-based, human
Method: Kidney organoid cell dissociation: Approximately 6 organoids from multiple independent wells of both untreated and treated (48 hour culture with 10 μM LY294002 between days 10 and 12) conditions were collected at differentiation days 10, 12, 14, and 18 for single-cell RNA-sequencing, from separate differentiation batches. The organoids were dissociated using Accumax (Stem Cell Technologies, 07921) at 37° C./5% CO2 for 35 minutes and pipetted twenty times with a P-1000 wide-bore pipette tip every 5 minutes. The dissociation was neutralized by using a 2× volume of AutoMACS Running Buffer (Miltenyi Biotec, 130-091-221). Cells were pelleted by centrifugation at 4° C. for 3 minutes at 300×g. After resuspending the pellet in 2 mL of AutoMACS Running Buffer, cell suspensions were strained through 40 μm strainer (VWR, 21008-949), washing the filter with an additional 1 mL AutoMACS. The flow-through was pelleted, again at 300×g in a 4° C. for 3 minutes. […]
SPLiT-seq single-cell RNA-sequencing data collection and analyses: SPLiT-seq cell processing. […] Fixed cells were then stored at −80° C. until all samples were ready to be processed with the Evercode WT v2 single-cell RNA-sequencing platform (Parse Biosciences, ECW02030). […]

[4] = system: E12.5 mouse kidney explants; experiment: Mouse kidney organ culture with inhibitors, immunofluorescence; assay type: cell-based; conditions: mouse kidney explants cultured 48 hours with inhibitor(s)
Method: Mouse kidney explants and culture: Pregnant female Swiss Webster mice were euthanized on day E12.5 of pregnancy via CO2 following appropriate University of Southern California IACUC approved protocol. Embryos were removed and placed into PBS before dissecting out kidneys for explant culture as described below. Mouse kidney organ culture: Kidneys were dissected from E12.5 embryos and cultured for 48 hours at 37° C./5% CO2 in DMEM. Treatment condition culture media was initially supplemented with 20 μM LY294002, 2 μM DAPT (Tocris 2634), or both, before 48 hours of culture, following prior studies. After culture, mouse kidney explants were prepared for immunofluorescent analyses as described below for organoids.

[5] = system: HNF4A-YFP control and PB organoids; experiment: DAPT treatment of HNF4A-YFP organoids after Ly29 withdrawal; assay type: cell-based, human; conditions: DAPT 48 hours between days 12 and 14, control and PB conditions
Method: To determine whether HNF4A^+ cell differentiation is Notch-signaling dependent, the study treated HNF4A-YFP control and PB organoids with DAPT for 48 hours between days 12 and 14, after Ly29 withdrawal (FIGS. 16E-16F). […] In DAPT conditions, YFP− structures still developed but were HNF1B^+/JAG1^+/HNF4A− (FIG. 16E), indicating Notch signaling is required for the transition from HNF1B^+ to HNF4A^+ cells, as anticipated. PB organoids contained more HNF4A^+ structures than other conditions, and controls formed more HNF4A^+ structures than DAPT-treated conditions (pvalues <0.01) (FIG. 16G).

[6] = system: control and proximal-biased kidney organoids; experiment: In vitro cisplatin injury assay; assay type: cell-based, human; conditions: for HNF4A/SOX9 cell state: single cisplatin-dose
Method: In vitro cisplatin injury assay: For the kidney organoid cisplatin injury assay, the study adapted an approach undertaken by two recent studies. Differentiation day 18 control and proximal-biased organoids were incubated overnight (18 hrs) at 37° C./5% CO2 in TeSR-E6 supplemented with 5 μM cisplatin (Millipore Sigma, 232120). […] Uninjured organoids were cultured with DMSO vehicle. Organoids were then processed for immunofluorescent imaging and analyses. In vitro cisplatin injury assay: For the kidney organoid cisplatin injury assay, the study adapted an approach undertaken by two recent studies. Differentiation day 18 control and proximal-biased organoids were incubated overnight (18 hours) at 37° C./5% CO2 in TeSR-E6 supplemented with 5 μM cisplatin (Millipore Sigma, 232120). Organoids recovered between days 19 and 20, before another overnight culture (18 hours) between days 20 and 21 with 5 μM cisplatin. Uninjured organoids were cultured with DMSO vehicle. Organoids were then processed for immunofluorescent imaging and analyses.

[7] = system: day 21 proximal-biased kidney organoids; experiment: Single-nucleus RNA-sequencing of cisplatin-treated PB organoids; assay type: cell-based, human; conditions: day 21, double-dose
Method: Single-nucleus preparation of kidney organoids: For single-nucleus RNA-sequencing, the same number of organoids from multiple independent wells were snap-frozen in liquid nitrogen before nuclei isolation. Briefly, organoids were transferred to a 1.7 mL low binding tube, centrifuged to form a pellet, and snap-frozen in liquid nitrogen. Flash-frozen organoids were dounced in cold Nuclei EZ Lysis Buffer (Sigma, N3408) supplemented with protease inhibitor (Roche, 05892791001). Homogenization was performed using a loose pestle and tight pestle system (Sigma, P0485) with 15 loose-dounce strokes, followed by filtration through a 200 μm strainer (pluriSelect, 43-50200). The homogenate was then subjected to an additional 5 strokes with the tight pestle and incubated on ice for 5 minutes. The suspension was filtered through a 40 μm strainer (pluriSelect, 43-50040) and centrifuged at 500×g for 5 minutes at 4° C. in a swinging-bucket centrifuge. After removing the supernatant, the nuclei pellet was resuspended in just Nuclei EZ Lysis Buffer, incubated on ice for an additional 5 minutes, and centrifuged again. […]
Single-nucleus processing and sequencing: Single-nucleus RNA-sequencing libraries were generated using the 10× Genomics Chromium Next GEM Single Cell Multiome reagents (PN 1000283) following the manufacturer's protocols (10× Genomics; CG000338 Rev E). Briefly, freshly prepared single-nuclei suspensions were counted on a Countess 3 FL cell counter and approximately 9,000 nuclei per condition went through 1 hour of transposition at 37° C. followed by GEM generation and barcoding on a Chromium X machine with immediate subsequent RT reaction. cDNA was generated from 7 preAmp cycles and 8 cDNA cycles. […]
Single-nucleus RNA-sequencing analyses: Single-nucleus RNA-sequencing data was processed using Cell Ranger (v9.0.0) and the Seurat 5.2 R package. […] Feature-barcode matrices were subsequently imported into Seurat using the Read10× function. […]

[8] = system: human iPSC-derived kidney organoids; experiment: Comparison of PI3K inhibitors on kidney organoids; assay type: cell-based
Method: Small-molecule inhibitor screen and culture optimization: For all small molecule inhibitors used in this study, initial screens were performed on kidney organoids to determine the optimal dosage and duration of culture. […] Concentrations tested used insights from prior studies. After an ideal concentration was established, to determine optimal duration of treatment with the small molecule, separate differentiation experiments were set up with the small molecule from differentiation days 10 to 18, as well as differentiation days 12 to 18. For all optimization screens, time-course bright-field imaging was performed, and organoids were collected for whole-mount immunofluorescent analyses on differentiation day 18. […] Small-molecule inhibitor screen and culture optimization: For all small molecule inhibitors used in this study, initial screens were performed on kidney organoids to determine the optimal dosage and duration of culture. […] After an ideal concentration was established, to determine optimal duration of treatment with the small molecule, separate differentiation experiments were set up with the small molecule from differentiation days 10 to 18, as well as differentiation days 12 to 18. For all optimization screens, time-course bright-field imaging was performed, and organoids were collected for whole-mount immunofluorescent analyses on differentiation day 18.

O=c1cc(N2CCOCC2)oc2c(-c3ccccc3)cccc12 [Ly29, LY294002]
HNF1B expression upregulated ([1]; RNA-sequencing, day 12, 48 hr treatment, vs control): 2.88 fold | increase in JAG1 expression ([1]; RNA-sequencing, day 12, treated days 10-12, vs control): 1.78 fold | increase in HNF4A transcript levels ([1]; bulk RNA-sequencing, day 18, vs controls): 2.31 fold | increase in HNF4G transcript levels ([1]; bulk RNA-sequencing, vs controls): 1.72 fold | HNF4A expression at day 12 ([1]; day 12, not detected): < 1.7 TPM | HNF1B+ nephron size increase ([2]; day 12 organoids, vs controls): 1.64 fold | JAG1+ nephron size increase ([2]; day 12 organoids, vs controls): 2.36 fold | abundance of HNF1B within each nephron, increase ([2]; day 12 organoids, vs controls): 1.22 fold | sum total area of HNF4A+ organoid nephron segments, increase ([2]; day 18, n=3 organoids, vs controls): 2.83 fold | average size of individual HNF4A+ segments, increase ([2]; day 18 organoids, vs controls): 1.30 fold | total number of HNF4A+ segments per organoid, increase ([2]; day 18 organoids, vs controls): 4.02 fold | share of all HNF4A+ cells that originated from the PB condition ([3]; days 12, 14, 18 integrated): 72.7% | share of all HNF4A+ proximal tubule precursors that originated from the PB condition ([3]; scaled for total cell numbers): 70.8%

C[C@H](NC(=O)Cc1cc(F)cc(F)c1)C(=O)N[C@H](C(=O)OC(C)(C)C)c1ccccc1 [DAPT]
Hnf4a expression [4]: blocked Hnf4a expression | nephron elongation and HNF1B/HES1 upregulation ([2]; day 12, cultured with DAPT, either with or without Ly29): did not elongate or further upregulate HNF1B; also recorded: did not upregulate HNF1B or HES1 | HNF4A-YFP [5]: reduced HNF4A-YFP

N.N.[Cl][Pt][Cl] [cisplatin]
tubular integrity and apicobasal polarity ([6]; ATP1A1 and LAMB1 distribution, injured nephrons): loss of tubular integrity and apicobasal polarity | SOX9 response to injury ([6]; PB kidney organoid nephrons, double dose): activated SOX9 | correlation of HNF4A protein levels with γH2AX (r) ([6]; cisplatin-injured PB nephrons, day 21): −0.67 | sensitivity of PB nephrons ([6]; day 18, 5 μM, 72 hrs): sensitive | uninterrupted tubular lumens longer in uninjured samples ([6]; day 21 PB organoids, uninjured vs injured): 2.82 fold | KIM1/HAVCR1 protein abundance higher in PB organoid nephrons ([6]; day 21 following injury, PB vs control organoid nephrons): 1.56 fold | HNF4A/SOX9 cell state ([6]; 1 day post-injury): HNF4AHIGH/SOX9LOW | HNF4A/SOX9 cell state ([6]; 3 days post-injury): HNF4AMED/SOX9MED | HNF4A/SOX9 cell state ([6]; 6 days post-injury): HNF4ALOW/SOX9HIGH | KIM1/HAVCR1 in HNF4A+ PB nephron cells ([6]; two staggered doses 5 μM, assayed 3 days after initial injury, PB organoids): strong detection | KIM1/HAVCR1 in injured control organoids ([6]; two staggered doses 5 μM, control organoids): sparse | HAVCR1 and SOX9 detection in injured cells ([7]; vs uninjured): higher detection | KRT17 detection ([7]; proximal subset): exclusively detected in the injured population | cells positive for injury markers that originated from the injured population ([7]; proximal subset): approximately 75%

CS(=O)(=O)N1CCN(Cc2cc3nc(-c4cccc5[nH]ncc45)nc(N4CCOCC4)c3s2)CC1 [GDC-0941]
efficacy relative to LY294002 ([8]; FIG. 11): slightly less efficacy than LY294002 | proximal-biasing phenotype of PI3K inhibition ([8]; second, structurally different PI3K inhibitor): confirmed
